Test [1] has as its target Luciferin 4-monooxygenase (Photinus pyralis, UniProt P08659). Kind of test: inhibition of purified Photinus pyralis luciferase – biochemical, luminescence, dose response (AID 1891).
Test [2] is described as follows: Luminescence Cell-Based Dose Confirmation HTS to Identify Inhibitors of Platelet Dense Granule Release. [Related pubchem assays: 1663 (Primary HTS), 1678 (Summary of Project)]. The test is classed as functional.
The next test has as its system H9c2. Kind of test: cells. The test is classed as functional, cell-based. The following applies: Rattus norvegicus, H9c2, Myocardium.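 Note: confirmatory concentration-response retest of ultra-high-throughput screening hits for modulation of myocardial damage; cell death induced by hydrogen peroxide oxidative stress; compound pretreatment for 60 min then peroxide exposure for 2 h; potency is for protecting the cells against peroxide damage rather than for killing them.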
The next test concerns the target T1, Protein skinhead-1 (Caenorhabditis elegans, UniProt P34707).
T1 sequence (P34707 whole entry): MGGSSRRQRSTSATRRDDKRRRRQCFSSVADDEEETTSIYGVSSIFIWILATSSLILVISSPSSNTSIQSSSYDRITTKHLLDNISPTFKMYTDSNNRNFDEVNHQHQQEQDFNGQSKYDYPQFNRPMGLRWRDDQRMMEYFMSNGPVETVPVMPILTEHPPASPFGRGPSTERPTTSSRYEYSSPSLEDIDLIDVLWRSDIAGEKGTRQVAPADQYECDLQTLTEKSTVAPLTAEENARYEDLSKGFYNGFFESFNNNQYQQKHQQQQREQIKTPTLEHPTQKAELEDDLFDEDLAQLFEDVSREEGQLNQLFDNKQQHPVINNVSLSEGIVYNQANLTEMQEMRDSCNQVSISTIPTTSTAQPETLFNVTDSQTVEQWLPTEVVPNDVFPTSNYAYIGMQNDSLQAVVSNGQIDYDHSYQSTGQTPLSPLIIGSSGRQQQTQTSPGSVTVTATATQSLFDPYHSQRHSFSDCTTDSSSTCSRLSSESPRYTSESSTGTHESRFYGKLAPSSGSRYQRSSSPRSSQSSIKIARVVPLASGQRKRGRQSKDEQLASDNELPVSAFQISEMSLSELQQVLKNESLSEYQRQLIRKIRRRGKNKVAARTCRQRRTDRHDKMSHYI
The test is classed as functional.

Test [3] in a line: HIV-1 AD8 envelope cell-cell fusion blockers – cherry-pick, dose response (AID 652062).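 Note: luciferase signal from cell-cell fusion driven by HIV-1 clade B AD8 Env; potency is for inhibitors of fusion seen as a drop in luminescence.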 The test is classed as functional, cell-based.
The nature of test [4]: blockers of HIV-1 ZM109 envelope-driven cell-cell fusion – HeLa effector, CEM target cells, luciferase, cherry-pick, dose response (AID 652058).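 Note: luciferase signal from HIV-1 Env mediated cell-cell fusion of effector and target cells.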 The test is classed as functional, cell-based.
Test [5] can be described thus: blockers of HIV-1 envelope-mediated cell-cell fusion – cherry-pick, dose response (AID 652057). Type of test: functional, cell-based.
Test [6] deals with T2, Replicative DNA helicase DnaB (Mycobacterium tuberculosis, UniProt P9WMR3).
T2 sequence (P9WMR3 whole entry): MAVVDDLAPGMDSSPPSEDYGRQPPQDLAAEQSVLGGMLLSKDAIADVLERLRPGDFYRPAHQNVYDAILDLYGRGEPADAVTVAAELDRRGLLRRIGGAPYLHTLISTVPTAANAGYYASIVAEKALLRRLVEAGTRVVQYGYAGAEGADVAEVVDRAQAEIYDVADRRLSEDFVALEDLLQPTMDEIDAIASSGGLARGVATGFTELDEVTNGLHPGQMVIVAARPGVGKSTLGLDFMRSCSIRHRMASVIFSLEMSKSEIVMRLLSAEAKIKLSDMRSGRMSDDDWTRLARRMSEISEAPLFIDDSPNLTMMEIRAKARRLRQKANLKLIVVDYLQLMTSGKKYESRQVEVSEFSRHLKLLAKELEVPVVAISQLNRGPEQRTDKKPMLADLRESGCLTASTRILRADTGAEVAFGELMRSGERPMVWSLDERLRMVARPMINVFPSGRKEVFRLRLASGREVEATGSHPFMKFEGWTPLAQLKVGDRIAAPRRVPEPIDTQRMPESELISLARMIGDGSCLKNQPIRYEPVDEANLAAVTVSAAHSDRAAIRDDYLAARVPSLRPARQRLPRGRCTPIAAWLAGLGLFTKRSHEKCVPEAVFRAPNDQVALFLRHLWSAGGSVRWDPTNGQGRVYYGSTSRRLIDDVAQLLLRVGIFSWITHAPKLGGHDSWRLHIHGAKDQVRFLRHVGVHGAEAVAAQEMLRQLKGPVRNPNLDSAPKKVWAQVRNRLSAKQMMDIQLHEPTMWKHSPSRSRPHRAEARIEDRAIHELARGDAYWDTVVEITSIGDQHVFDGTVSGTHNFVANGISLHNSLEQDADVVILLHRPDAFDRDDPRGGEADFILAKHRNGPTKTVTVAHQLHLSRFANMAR
Kind of test: DnaB intein splicing inhibitors, dose response, biochemical, cell-free fluorescence (AID 449749). The test is classed as functional.

Another test has as its target T3, Protein RecA (Mycobacterium tuberculosis, UniProt P9WHJ3).
T3 sequence (P9WHJ3 whole entry): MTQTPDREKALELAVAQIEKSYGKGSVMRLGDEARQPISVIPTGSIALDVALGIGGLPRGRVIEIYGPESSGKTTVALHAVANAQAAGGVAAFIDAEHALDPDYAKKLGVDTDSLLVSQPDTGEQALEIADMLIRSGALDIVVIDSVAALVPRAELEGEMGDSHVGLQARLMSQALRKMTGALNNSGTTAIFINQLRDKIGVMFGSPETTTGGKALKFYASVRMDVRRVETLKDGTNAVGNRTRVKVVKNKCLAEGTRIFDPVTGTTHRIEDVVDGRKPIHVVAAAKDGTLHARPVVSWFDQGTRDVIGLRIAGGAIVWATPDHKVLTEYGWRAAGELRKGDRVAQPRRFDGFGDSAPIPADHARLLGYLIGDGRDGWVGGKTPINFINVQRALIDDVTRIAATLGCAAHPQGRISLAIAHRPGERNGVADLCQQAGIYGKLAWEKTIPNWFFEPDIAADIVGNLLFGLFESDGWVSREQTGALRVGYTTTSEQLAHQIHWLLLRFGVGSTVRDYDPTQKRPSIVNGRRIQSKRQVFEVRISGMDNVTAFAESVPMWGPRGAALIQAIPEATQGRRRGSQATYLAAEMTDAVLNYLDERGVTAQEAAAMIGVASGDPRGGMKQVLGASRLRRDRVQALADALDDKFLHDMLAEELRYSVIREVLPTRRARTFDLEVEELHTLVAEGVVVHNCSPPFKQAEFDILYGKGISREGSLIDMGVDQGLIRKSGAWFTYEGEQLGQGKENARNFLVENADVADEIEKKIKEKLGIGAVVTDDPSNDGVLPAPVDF
The test is described as follows: Fluorescence Cell-Free Homogeneous Dose Retest to Identify Inhibitors of RecA-Intein Splicing Activity. [Related pubchem assays (depositor defined):AID2097, AID2223, AID489010, AID492950]. Type of test: functional.

In the next test the target is Cytochrome P450 3A4 (Homo sapiens, UniProt P08684).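 Note: CYP3A4 tested as one member of a cytochrome P450 panel screen.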
Cytochrome P450 3A4, sequence (P08684 whole entry): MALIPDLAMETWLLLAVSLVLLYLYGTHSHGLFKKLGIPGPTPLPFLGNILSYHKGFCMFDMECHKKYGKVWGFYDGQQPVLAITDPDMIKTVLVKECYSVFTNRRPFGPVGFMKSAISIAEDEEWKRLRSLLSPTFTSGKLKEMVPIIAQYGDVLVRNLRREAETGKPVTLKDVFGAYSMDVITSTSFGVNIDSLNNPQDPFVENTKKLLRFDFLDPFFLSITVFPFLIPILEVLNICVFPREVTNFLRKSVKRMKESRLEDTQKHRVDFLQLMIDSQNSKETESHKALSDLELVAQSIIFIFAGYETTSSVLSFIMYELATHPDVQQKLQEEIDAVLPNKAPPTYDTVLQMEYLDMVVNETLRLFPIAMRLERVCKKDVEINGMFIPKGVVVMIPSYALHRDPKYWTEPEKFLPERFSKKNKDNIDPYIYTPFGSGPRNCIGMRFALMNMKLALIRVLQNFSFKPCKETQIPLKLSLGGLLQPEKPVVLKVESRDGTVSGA
In a further test the target is Cytochrome P450 2C9 (Homo sapiens, UniProt P11712).
Cytochrome P450 2C9, sequence (P11712 whole entry): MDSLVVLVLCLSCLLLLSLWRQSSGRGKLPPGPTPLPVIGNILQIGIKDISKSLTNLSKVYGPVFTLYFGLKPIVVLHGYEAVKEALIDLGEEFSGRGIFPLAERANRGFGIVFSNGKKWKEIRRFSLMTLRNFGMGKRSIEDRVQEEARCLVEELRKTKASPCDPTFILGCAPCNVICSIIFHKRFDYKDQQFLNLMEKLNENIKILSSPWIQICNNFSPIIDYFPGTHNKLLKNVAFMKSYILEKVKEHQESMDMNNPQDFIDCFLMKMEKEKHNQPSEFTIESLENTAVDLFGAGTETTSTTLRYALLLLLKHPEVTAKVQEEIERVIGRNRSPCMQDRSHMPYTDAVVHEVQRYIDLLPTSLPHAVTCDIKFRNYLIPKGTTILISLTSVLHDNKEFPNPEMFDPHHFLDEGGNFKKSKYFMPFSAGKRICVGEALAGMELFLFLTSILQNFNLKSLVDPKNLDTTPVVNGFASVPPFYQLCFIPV

Calls of active or inactive are those of the source.

Luciferin 4-monooxygenase, sequence (P08659 whole entry): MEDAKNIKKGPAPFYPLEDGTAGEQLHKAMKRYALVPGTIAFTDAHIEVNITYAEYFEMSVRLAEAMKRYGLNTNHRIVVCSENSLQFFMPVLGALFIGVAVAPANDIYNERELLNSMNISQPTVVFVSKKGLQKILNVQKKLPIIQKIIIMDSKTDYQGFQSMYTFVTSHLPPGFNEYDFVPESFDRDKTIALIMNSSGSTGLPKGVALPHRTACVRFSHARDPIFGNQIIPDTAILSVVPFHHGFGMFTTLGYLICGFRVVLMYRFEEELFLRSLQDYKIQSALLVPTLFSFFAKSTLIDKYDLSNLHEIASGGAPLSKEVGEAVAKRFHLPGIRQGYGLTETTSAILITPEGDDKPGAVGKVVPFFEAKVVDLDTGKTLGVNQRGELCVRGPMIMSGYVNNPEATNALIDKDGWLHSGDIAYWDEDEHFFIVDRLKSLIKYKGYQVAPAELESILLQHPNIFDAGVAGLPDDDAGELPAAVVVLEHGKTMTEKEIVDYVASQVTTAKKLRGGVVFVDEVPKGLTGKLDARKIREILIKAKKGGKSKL

In the case of `CCOC(=O)c1c(C)[nH]c(C)c1S(=O)(=O)NCC(=O)Nc1ccccn1`, the EC50 in test [1] and in [2] was > 112 µM (not active) each time.
Consider `COc1ccccc1NC(=O)CSc1nc(O)c2c(C)cc(C)nc2n1`, for which the EC50 in test [1] and in test [2] was > 112 µM (not active) each time.
As for `Cc1cccc(NC(=O)c2[nH]cnc2C(=O)NCCCCNC(=O)c2nc[nH]c2C(=O)Nc2cccc(C)c2)c1`, the IC50 with H9c2 was > 79 µM (inactive).
As to `c1ccc(OCc2nc(-c3cccs3)no2)cc1`, the concentration for half-maximal inhibition (IC50) at Protein skinhead-1 was 31.5 µM (active).
Take `COc1ccc(S(=O)(=O)N2CC(O)CC2C(=O)OCc2nc(O)c3c(C)c(C)sc3n2)cc1` (centres undefined): the IC50 with H9c2 is 31 µM (inactive).
The same measure, in the same setting: then `COC(=O)c1ccc(CSc2ccc3nnc(-c4cccc(F)c4)n3n2)o1`, with > 79 µM (inactive); and `Cn1c(=O)[nH]c(=O)c2c1nc(NCCc1ccccc1)n2CC(O)COc1ccccc1` (centres undefined), with > 79 µM (inactive).
As for `CC(C)NC(=O)Nc1ccc2c(c1)C(=O)N([C@@H](C)CO)C[C@H](C)[C@H](CN(C)C(=O)Nc1ccc(F)cc1)O2`, the AC50 was 58.4 µM (active) in test [3] and 22.4 µM (active) in [4].
With `CCN(CC)CCN1C(=O)C(O)=C(C(=O)c2cnn(-c3ccccc3)c2C)C1c1ccc(C)o1` (centres undefined), the IC50 on Protein skinhead-1 is > 100 µM (inactive).
On to `CCOC(=O)C1CCCN(Cc2nc(N)nc(Nc3ccc(OC)cc3)n2)C1` (centres undefined), for which the values for the AC50 in [3] and in test [4] were 27 µM (active) and 4.93 µM (active), respectively.
Turning to `CC(C)(C)OC(=O)CNC(=O)c1[nH]cnc1C(=O)Nc1ccc(CNC(=O)OC(C)(C)C)cc1`, the IC50 in the test on H9c2 was > 79 µM (inactive).
For `COc1ccc(NC(=O)CSc2ccccn2)c([N+](=O)[O-])c1`, the EC50 in [1] and in test [2] was > 112 µM (not active) in each case.
As to `CCn1c(C)c(C2=CCN(S(=O)(=O)c3ccccc3)CC2)c2ccccc21`, the IC50 on Protein skinhead-1 is > 100 µM (inactive).
As to `CCOc1cccc2cc(C(=O)N3CCc4ccccc43)c(=O)oc12`, the IC50 on Protein skinhead-1 was > 100 µM (inactive).
On to `Oc1nnc(-c2cccs2)c2ccccc12`, for which, in the test on H9c2, the half-maximal inhibitory concentration (IC50) was 19.4 µM (active).
On to `Cc1nn(Cc2ccc(C(=O)N3CCN(C(=O)c4ccco4)CC3)o2)c(C)c1[N+](=O)[O-]`, for which, in the test with H9c2, the IC50 is 21.9 µM (active).
Consider `O=C(O)C1C2C=CC(O2)C1C(=O)NCCCn1ccnc1` (centres undefined), for which the EC50 in test [1] and in [2] was > 112 µM (not active) throughout.
On to `O=C(Nc1cc(C(F)(F)F)ccc1N1CCCCC1)C1=COCCO1`, for which the IC50 on Protein skinhead-1 is > 100 µM (inactive).
`COCCCn1c(SCC(=O)NC(C)C)nnc1-c1ccccc1`: on Protein skinhead-1, the IC50 is > 100 µM (inactive).
Consider `C[C@H](CO)N1C[C@H](C)[C@H](CN(C)S(=O)(=O)c2ccc(F)cc2)Oc2ccc(NC(=O)Nc3cccc4ccccc34)cc2CC1=O`, for which the AC50 in test [3] is 1.27 µM (active); in [4], 0.483 µM (active); in [5], < 0.26 µM (active).
For the compound `Cc1cc(C)n2c(SCc3c(C)noc3C)nnc2n1`, the IC50 on Protein skinhead-1 is > 100 µM (inactive).
Turning to `COc1ccc2nc(O)c(CNC3CCCCC3)cc2c1`, the IC50 in the test with H9c2 is 46.3 µM (inactive).
The same measure, in the same setting: to `Cc1ccc(C(=O)Nc2cccc(C(F)(F)F)c2)cc1NC(=O)c1csc(-c2ccncc2)n1` belongs > 79 µM (inactive); to `COc1ccc(NC(=O)COc2cccc3c2CCNC3=O)cc1`, > 79 µM (inactive).
With `COc1ccc(-n2c(C)c(C(C)=O)c(C(C)=O)c2C)cc1OC`, the EC50 in [1] and in test [2] was > 112 µM (not active) throughout.
Consider `CCCCNCCOCCOc1ccc(F)cc1`, for which the EC50 in test [1] and in test [2] was > 112 µM (not active) in each case.
`N=C(NOC(=O)c1ccc2ccccc2c1)c1ccccn1`: the figures for the EC50 in test [1] and in [2] were 0.596 µM (active) and 1.53 µM (active), respectively.
On the same counts, the results for `CSc1ccc(/C=C(/NC(=O)c2ccco2)C(=O)N2CCCCC2)cc1` are > 112 µM (not active) and 17.5 µM (active).
Turning to `O=C(NCC(=O)N(Cc1cccs1)C(C(=O)NC1CCCCC1)c1ccncc1)c1ccco1` (centres undefined), at Protein skinhead-1, the IC50 was > 100 µM (inactive).
`COc1ccc(CSc2ncnc3sccc23)cc1F`: the EC50 in test [1] and in test [2] was > 112 µM (not active) each time.
As to `CC(C)CC#Cc1ccc2c(c1)O[C@@H](CN(C)Cc1ccccn1)[C@H](C)CN([C@H](C)CO)S2(=O)=O`, the AC50 was 26 µM (active) in [3], 31.9 µM (active) in test [4] and 26.1 µM (active) in test [5].
In the case of `CCCNCc1cc(Cl)c(OCC)c(Cl)c1`, at Protein skinhead-1, the IC50 is > 100 µM (inactive).
With `CCCC(=O)C1=C(N2CCCC2)CC(C)(C)C(C(=O)OC)C1=O` (centres undefined), the EC50 in test [1] and in [2] was > 112 µM (not active) in each case.
With `O=[N+]([O-])c1ccc(Oc2ccc(F)cc2)c2ccncc12`, in test [6], the AC50 was > 380 µM (inactive). In addition, the EC50 at Protein RecA was 1.4 µM (active). For the same compound, at Protein skinhead-1, the IC50 is > 100 µM (inactive).
With `COc1ccccc1-c1c(C(F)(F)F)oc2cc(OC(=O)c3cccc([N+](=O)[O-])c3C)ccc2c1=O`, the AC50 is 12.6 µM (inconclusive) on Cytochrome P450 3A4 and 0.447 µM (inconclusive) at Cytochrome P450 2C9. The IC50 at Protein skinhead-1 was > 100 µM (inactive).
Regarding `Clc1ccc(-c2nnsc2SCc2ccccc2)cc1`, the IC50 at Protein skinhead-1 was > 100 µM (inactive).
As to `O=C(c1ccco1)N1CCCN(Cc2nc(-c3cccs3)no2)CC1`, the EC50 in test [1] is > 112 µM (not active); in test [2], 25 µM (active).
`C[C@H](CO)N1C[C@H](C)[C@@H](CN(C)S(=O)(=O)c2cccs2)Oc2ccc(NC(=O)Nc3ccccc3)cc2C1=O`: the IC50 in the test with H9c2 is 11.9 µM (active).

For orientation: EC50 means the concentration that produces a half-maximal response. The term IC50 denotes the concentration that inhibits the measured activity by half. The term AC50 denotes the concentration at which the activity in the assay is half-maximal.
